The subject of one series is anesthetized dogs. As to the kind of experiment: cardiovascular effects in anesthetized dogs. It counts as in vivo, dog. Particulars: cumulative doses of 5 and 15 mg/kg, i.v.
A further series has as its system IgG. As to the kind of experiment: passive cutaneous anaphylaxis (PCA) test, oral, IgG (hyperimmune antiserum) site. It counts as in vivo, rat. Particulars: Table I, 1 mg./kg. On the procedure: The antiallergy property of the compounds of this invention is evaluated by the passive cutaneous anaphylaxis (PCA) test (Ovary, J. Immun., 81, 355, 1958). In the PCA test, normal animals are injected intradermally (i.d.) with antibodies contained in serum obtained from actively sensitized animals. The animals are then challenged intravenously with antigen mixed with a dye such as Evans' Blue. The increased capillary permeability caused by the antigen-antibody reaction causes the dye to leak from the site of the antibody injection. The test animals are then asphyxiated and the intensity of the reaction determined by measuring the diameter and intensity of the blue coloration on the inner surface of the animals' skin.
The PCA test is a measure of the anti-allergic (especially anti-asthmatic) activity of a compound. Compounds which inhibit a positive PCA test induced by the rat immunochemical counterpart of human immunoglobulin E (IgE), or reagin, are considered to have anti-allergic activity (C. Mota, Ann. N.Y. Acad. Sci., 103, 264 1963). (Reagin is primarily immunoglobulin E [IgE] and is the principal immunoglobulin responsible for allergic asthma, anaphylaxis, hay fever, food sensitivities and certain manifestations of drug sensitivities, although recent evidence ascribes to the IgG class of antibodies a significant role in the mediation of allergic diseases). Such compounds when administered to a sensitized subject, human or animal, prior to the time when the subject comes into contact with antigens or substances to which it is allergic, will prevent the allergic reaction which would otherwise occur. They, therefore, provide a method for the prophylactic treatment of allergy or anaphylactic reactions of a reagin mediated nature.
To put it another way, such compounds block the release of mediators resulting from the antigen-antibody (allergic) reaction as illustrated in the PCA test using rat homocytotropic antibody--a known correlate of human reaginic antibody. Inhibition of reaginic antigen-antibody reactions in rats, the test animal of the PCA test, is regarded as representative of inhibition of human reaginic antigen-antibody reactions which occur during allergic episodes.
The ability of agents to interfere with PCA reactions is measured in male Charles River Wistar rats, 170-210 g. Reaginic antiserum, rich in IgE antibodies, is prepared according to Petillo et al., Int. Arch. Allergy, 44, 309 (1973). Hyperimmune antiserum rich in IgG antibodies to hen egg albumin is prepared according to Orange et al., J. Exptl. Med., 127, 767 (1968). Forty-eight hours prior to antigen challenge, the reaginic antiserum is injected intradermally (i.d.) into the shaved skin of a normal rat's back; 5 hours before challenge the hyperimmune antisera is similarly injected. At a third site 60 mcg. histamine dihydrochloride and 0.5 mcg. serotonin creatinine sulfate are injected i.d. just prior to antigen challenge as a check for antihistaminic, antiserotonin and unspecific types of blockage; the compounds of the instant invention or saline are then administered i.v. and immediately followed by the challenge of 5 mg. egg albumen and 2.5 mg. Evans' Blue dye in saline. In the case of oral administration Evans' Blue dye and egg albumin are given 5 minutes after administration of the drug. Thirty minutes later the animals are asphyxiated using chloroform and the skin of the back removed and reversed for observation. A score is assigned each injection site equal to the product of the diameter of the site in mm. and a grade of 0.1, 0.5, 1, 2, 3 or 4 proportional to intensity of dye coloration. The scores for a given injection site are summed for each group of five animals and compared to the saline treated controls. The difference is expressed as percent blockage due to the compound employed. […]

Series [1] in a line: stability (solid state, in admixture and in solution). It counts as physicochemical. Particulars: pure solid state, with standard pharmaceutical diluents.
Series [2] has as its system IgE-mediated passive cutaneous anaphylaxis (PCA). As to the kind of experiment: PCA test, intravenous, comparison with Intal, IgE-mediated permeability. It counts as in vivo, rat. On the procedure:
In the PCA test, normal animals are injected intradermally (i.d.) with antibodies contained in serum obtained from actively sensitized animals. The animals are then challenged intravenously with antigen mixed with a dye such as Evans' Blue. The increased capillary permeability caused by the antigen-antibody reaction causes the dye to leak from the site of the antibody injection. The test animals are then asphyxiated and the intensity of the reaction determined by measuring the diameter and intensity of the blue coloration on the inner surface of the animals' skin.
The ability of agents to interfere with PCA reactions is measured in male Charles River Wistar rats, 170-210 g. Reaginic antiserum, rich in IgE antibodies, is prepared according to Petillo et al., Int. Arch. […] Hyperimmune antiserum rich in IgG antibodies to hen egg albumin is prepared according to Orange et al., J. Exptl. […] Forty-eight hours prior to antigen challenge, the reaginic antiserum is injected intradermally (i.d.) into the shaved skin of a normal rat's back; 5 hours before challenge the hyperimmune antisera is similarly injected. […] The difference is expressed as percent blockage due to the compound employed.

On to `O=C(Nc1nnn[nH]1)c1cnc2sc3c(n2c1=O)CCCC3` [compound III, N-(5-tetrazolyl)-1-oxo-1H-cyclohexenothiazolo[3,2-a]pyrimidine-2-carboxamide], for which, in the series with anesthetized dogs, the blood pressure entry is given as “transient hypotension”; the heart rate result was “variable changes in heart rate”; the “pressor responses to epinephrine and bilateral carotid occlusion” value is on record as “diminished slightly”. The “Oral Activity (% of Protection) of Amides in the PCA Test, IgG 1 mg./kg.” value in the series on IgG is given as 45%. Moreover, the stability result in series [1] is “exceptionally good stability”. Further, the stability result in series [1] (listed as formula III) is “highly stable”. Also, the “intravenous activity in the PCA test, dose range” value in series [2] (intravenous) was in the range of 0.03 to 1.0 mg/kg. In series [2] (rat, in vivo), the “changes in cutaneous permeability induced by IgE-mediated PCA” value is “blocks the changes in cutaneous permeability”.

Source of the values: patent US4414388A, “1-Oxo-1H-thiazolo[3,2-a]pyrimidine-2-carboxamides” (Pfizer Inc., priority 1981, dated 1983).
